Results taken from the supplement of paper PMC10307832.

Columns and labels:
Assay in all cases: relative viability (nuclei count vs DMSO), 5 days (fraction); higher = more cells survive
GSK-J4 + Navitoclax = compound: CCOC(=O)CCNc1cc(N2CCc3ccccc3CC2)nc(-c2ccccn2)n1 [GSK-J4] + CC1(C)CCC(c2ccc(Cl)cc2)=C(CN2CCN(c3ccc(C(=O)NS(=O)(=O)c4ccc(N[C@H](CCN5CCOCC5)CSc5ccccc5)c(S(=O)(=O)C(F)(F)F)c4)cc3)CC2)C1 [Navitoclax] (partner 0.5 µM)
Method in brief: (§1)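 Lung cancer cell lines were seeded in 1536-well plates and dosed by pin tool the next day, with either a single drug or a fixed anchor-drug dose combined with five library-drug doses (not always all listed) spaced in √10 steps. Five days later, one step fixed the cells and stained their nuclei (final 0.05% Triton X-100, 1% formaldehyde, 1 ug/ml Hoechst), and nuclei were counted on 4× images. Relative viability is the nuclei count in treated wells divided by the count in vehicle wells, and each value is the median of duplicate plates.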

AZ3146 + Phenformin = compound: CN1CCC(CC1)OC2=CC(=C(C=C2)NC3=NC=C4C(=N3)N(C(=O)N4C)C5CCCC5)OC [AZ3146] + N=C(N)NC(=N)NCCc1ccccc1 [Phenformin] (partner 250 µM)
Method in brief: as §1

GSK-J4 = compound: CCOC(=O)CCNc1cc(N2CCc3ccccc3CC2)nc(-c2ccccn2)n1 [GSK-J4]
Method in brief: (§2)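 A plate was accepted only when its control CV was below 25% and the cells had doubled at least once. Viability is defined from nuclear counts as treated wells divided by vehicle wells, with the median taken across plates. That median covers lung cancer cell lines grown in 1536-well plates, dosed by pinning at five √10-spaced library-drug concentrations, and counted in MetaXpress from 4× Hoechst images after 5 days.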

AZ3146 = compound: CN1CCC(CC1)OC2=CC(=C(C=C2)NC3=NC=C4C(=N3)N(C(=O)N4C)C5CCCC5)OC [AZ3146]
Method in brief: as §2

Cell Line | relative viability (GSK-J4 + Navitoclax; first compound 0.5 µM) | relative viability (GSK-J4 + Navitoclax; first compound 5 µM) | relative viability (GSK-J4 + Navitoclax; first compound 15.81 µM) | relative viability (GSK-J4 + Navitoclax; first compound 50 µM) | relative viability (AZ3146 + Phenformin; first compound 0.08 µM) | relative viability (AZ3146 + Phenformin; first compound 0.253 µM) | relative viability (AZ3146 + Phenformin; first compound 0.8 µM) | relative viability (AZ3146 + Phenformin; first compound 2.53 µM) | relative viability (AZ3146 + Phenformin; first compound 8 µM) | relative viability (GSK-J4; 0.5 µM) | relative viability (GSK-J4; 1.581 µM) | relative viability (GSK-J4; 5 µM) | relative viability (GSK-J4; 15.81 µM) | relative viability (GSK-J4; 50 µM) | relative viability (AZ3146; 0.08 µM) | relative viability (AZ3146; 0.253 µM) | relative viability (AZ3146; 0.8 µM) | relative viability (AZ3146; 2.53 µM) | relative viability (AZ3146; 8 µM) | relative viability (GSK-J4 + Navitoclax; first compound 1.581 µM)
NCI-H23 | 0.856 | 0.886 | 0.893 | 0.867 | 0.823 | 0.805 | 0.832 | 0.789 | 0.8 | 0.956 | 0.761 | 0.814 | 0.803 | 0.742 | 1.13 | 1.06 | 0.959 | 1.05 | 0.758 | 
NCI-H1355 | 0.913 | 1.18 | 0.815 | 0.924 | 0.446 | 0.444 | 0.437 | 0.465 | 0.404 | 0.979 | 0.916 | 0.821 | 0.902 | 0.943 | 0.941 | 0.971 | 1 | 1.07 | 0.961 | 0.793
NCI-H2085 | 0.971 | 1.13 | 1.09 | 0.999 | 0.659 | 0.67 | 0.67 | 0.757 | 0.477 | 1.02 | 0.953 | 0.884 | 0.924 | 0.955 | 1 | 0.987 | 0.972 | 0.97 | 0.992 | 1.12
NCI-H322M | 1.18 | 1.29 | 1.05 | 1.17 | 0.82 | 0.811 | 0.715 | 0.833 | 0.585 | 1.05 | 1.04 | 1.1 | 0.839 | 0.818 | 0.872 | 0.927 | 0.823 | 0.958 | 0.827 | 1.18
NCI-H1915 | 0.759 | 0.747 | 0.715 | 0.765 | 0.285 | 0.375 | 0.381 | 0.365 | 0.343 | 0.924 | 0.856 |  | 0.969 | 1.12 | 0.9 | 1.04 | 1.07 | 1.03 | 0.991 | 0.713
HOP-62 | 0.955 | 1.11 | 1.1 | 0.707 | 0.567 | 0.697 | 0.604 | 0.647 | 0.523 | 1 | 0.835 | 1.04 | 0.987 | 0.749 | 0.958 | 0.986 | 0.98 | 1.03 | 0.956 | 0.989
LXF-289 | 0.864 | 0.955 | 0.933 | 0.867 | 0.535 | 0.49 | 0.524 | 0.528 | 0.43 | 1.02 | 0.903 | 0.967 | 1.02 | 0.983 | 0.944 | 0.991 | 0.989 | 1.02 | 0.982 | 0.838
NCI-H441 | 0.818 | 0.508 | 0.667 | 0.535 | 0.762 | 0.884 | 0.812 | 0.864 | 0.737 | 0.967 | 0.85 | 0.827 | 0.92 | 0.796 | 0.939 | 1.18 | 1.01 | 1.05 | 1.03 | 0.362
BEN | 0.0769 |  | 0.0496 | 0.042 |  | 0.291 | 0.248 | 0.268 | 0.242 | 1.06 | 0.864 |  | 0.876 | 0.788 |  | 0.898 | 0.886 | 0.989 | 0.943 | 0.0597
NCI-H2009 | 1.14 | 0.951 | 1.14 | 0.882 | 0.478 | 0.494 | 0.402 | 0.386 | 0.311 | 0.951 | 0.89 | 0.733 | 0.966 | 0.545 | 0.928 | 0.997 | 1.03 | 1.02 | 0.713 | 1.12
NCI-H1755 | 0.978 | 0.975 | 0.955 | 0.96 | 0.548 | 0.577 | 0.57 | 0.601 | 0.569 | 0.969 | 0.847 | 0.728 | 0.929 | 0.916 | 0.933 | 1.02 | 0.955 | 0.994 | 0.984 | 0.888
NCI-H520 | 1.07 | 1.21 | 0.694 | 1.06 | 0.385 | 0.497 | 0.323 | 0.637 | 0.375 | 0.985 | 0.621 | 0.857 | 0.702 | 0.853 | 0.875 | 0.971 | 0.832 | 1.04 | 0.999 | 0.957
LOU-NH91 | 0.733 | 0.577 | 0.571 | 0.764 | 0.736 | 0.565 | 0.768 | 0.761 | 0.76 | 1.12 | 1.03 | 0.724 | 0.868 | 0.952 | 1.01 | 0.935 | 0.957 | 0.986 | 0.96 | 0.743
LU99A | 0.788 | 0.852 | 0.814 | 0.633 | 0.687 | 0.841 | 0.676 | 0.8 | 0.842 | 0.819 | 0.872 |  | 0.884 | 0.756 | 0.783 | 1.04 | 0.989 | 0.964 | 1.11 | 0.746
PC-14 | 0.939 | 0.948 | 1.02 | 0.926 | 0.563 | 0.465 |  | 0.579 | 0.314 | 1.02 | 0.916 | 0.769 | 0.985 | 1.01 | 0.958 | 0.967 | 1.02 | 1.04 | 0.784 | 1.02
LC-2-ad | 0.464 | 0.407 | 0.374 | 0.41 | 0.54 | 0.557 | 0.614 | 0.628 | 0.609 | 0.988 | 0.807 | 0.787 | 0.933 | 0.903 | 0.895 | 1.04 | 0.979 | 0.967 | 0.91 | 0.389
NCI-H2126 | 0.823 | 0.849 | 0.72 | 0.709 | 0.459 | 0.508 | 0.52 | 0.538 | 0.452 | 0.973 | 0.944 | 1.02 | 0.906 | 0.83 | 0.972 | 1 | 0.99 | 1.06 | 0.919 | 0.842
